In US20200121801A1, “DRUG DELIVERY CONJUGATES CONTAINING UNNATURAL AMINO ACIDS AND METHODS FOR USING” (priority 2012, published 2020):

Legend:
[1] = test system: KB-CR2000 (cisplatin resistant) tumors; assay: Cisplatin-resistant KB-CR2000 tumor model; type: in vivo, mice; conditions: cisplatin 3 mg/kg twice per week, 2 weeks
[2] = Pharmacokinetic biodistribution of 3H-EC1669 and 3H-methotrexate; type: in vivo, Balb/c mice
Protocol: METHOD. Pharmacokinetic biodistribution. Studies in this section included a minimum of 3 test animals (mice) per time point. The pharmacokinetic biodistribution of test compound, such as ^3H-EC1669 (label on the drug), compared to positive control, such as ^3H-methotrexate (^3H-MTX), is observed in female Balb/c mice on folate-deficient diet. Compounds are administered as a single subcutaneous (SC) injection at 500 nmol/kg. Whole blood (>300 μL) along with ˜100 mg each of various tissues of interests are collected at various time points (such as 10 min, 30 min, 1 h, 2 h, 4 h, 8 h, 12 h, 24 h, and 72 h). The blood samples are placed in BD microtainer tubes (heparin) and centrifuged (4,000 g×3 min, 4° C.) to separate plasma (>100 μL). The remaining red blood cell (RBC) mass is washed 2× with phosphate buffered saline (PBS, pH 7.4) to obtain RBCs. The collected tissues are weighed and processed to determine ^3H-EC1669 and ^3H-MTX distribution: plasma, RBC, heart, lung, liver (the smallest lobe), spleen, kidney (1), intestine (above cecum), fecal material (from colon), muscle, and brain.

[3] = Renal/hepatic secretion study; type: in vivo, mice; conditions: 24 h post-dose, s.c.
Protocol: In a subsequent renal/hepatic secretion study, mice are housed in metabolic cages with a 6-h fast before subcutaneous administration of ^3H-EC1669 or ^3H-MTX. At 24 h post-dose, ˜14% more radioactivity is found in the pooled urine of ^3H-EC1669 dosed animals than in ^3H-MTX dosed animals. In contrast, twice as much radioactivity was found in the pooled feces of ^3H-MTX dosed animals than in EC1669 dosed animals. […] MTX reportedly causes hepatotoxicity as a major side effect, especially after long-term use. Without being bound by theory, it is believed herein that the preferential renal clearance of the compounds described herein will lead to fewer side effects such as hepatotoxicity.

[4] = test system: experimental autoimmune encephalomyelitis; assay: Autoimmune encephalomyelitis (EAE) model; type: in vivo, rats; conditions: when dosed alone
Protocol: METHOD. Autoimmune Encephalomyelitis (EAE) Model. EAE is induced in rats by immunization against 25 μg of guinea pig myelin basic protein (MBP) formulated with CFA containing 1 mg of grounded Mycobacterium tuberculosis H37Ra. Pertussis toxin is given intraperitoneally (1 μg/rat) to enhance the organ-specific autoimmunity. Starting 8 days after induction, rats are divided into […]: (1) untreated control (n=8), (2) test compound (n=7), and (3) test compound plus competitor compound (n=7), such as EC0923 competition. All treatments start on day 8 after EAE induction. The animals in the EAE control group are left untreated. […] The clinical severity of EAE is monitored on a daily basis and graded on a scale of 0 to 5 per animal. The clinical signs of ascending paralysis of EAE rats are divided into a 0-5 scale: 0=No disease, 0.5=distal limp tail, 1=limp tail, 2=mild paraparesis; ataxia-weakened hind limbs, 3=moderate paraparesis; hind limbs paresis, 4=complete hind limb paralysis, 5=complete hind limb paralysis and incontinence (euthanasia). On day 16, the animals are euthanized and brain and spinal cords are fixed in formalin for histology.

[5] = Plasma stability / free drug release after s.c. dose (EC1496 vs EC0746); type: in vivo, rats; conditions: 500 nmol/kg s.c.
Protocol: METHOD. Human serum stability. Compounds described herein are tested in human serum for stability using conventional protocols and methods. Briefly, test compound is administered to the test animal, such as by subcutaneous injection. The plasma concentration of the conjugate, and optionally one or more metabolites, is monitored over time. The results are graphed to determine Cmax, Tmax, half-life, and AUC for the test compound and metabolites.
EXAMPLE. […] EC1495 and EC0746 (comparator compound) are each administered at 500 nmol/kg by subcutaneous injection. The plasma concentration of the conjugate and the metabolites (aminopterin and aminopterin hydrazide) are monitored over time. […] As also shown in the following table, free drug is released as the parent aminopterin and the hydrazide derivative (EC0470).

[6] = Relative whole animal toxicity in folate deficient rats; type: in vivo; conditions: 3 μmol/kg i.v. BIW, 2 weeks
Protocol: EXAMPLE. […] Test compounds are administered i.v. at equivalent doses to folate deficient rats.

[7] = Cytotoxicity of unconjugated tubulysins to cells in culture; type: cell-based; conditions: cells in culture (cell line not given); read-out: typical IC50, cytotoxic to cells in culture
KB tumors = assay: Inhibition of tumor growth, s.c. KB tumors in nu/nu mice; type: in vivo; conditions: 1.0 μmol/kg (only 2 doses due to toxicity), TIW, 2 weeks
Protocol: METHOD. Inhibition of Tumor Growth in Mice. […] For tumor cell inoculation, 1×10^6 M109 cells (a syngeneic lung carcinoma) in Balb/c strain, or 1×10^6 KB cells in nu/nu strain, in 100 μL are injected in the subcutis of the dorsal medial area (right axilla).
METHOD. Toxicity as Measured by Weight Loss. The percentage weight change of the test animals is determined on selected days post-tumor inoculation (PTI), and during dosing. The results are graphed.

[8] = 10 min post-dose, 500 nmol/kg s.c.

N.N.[Cl][Pt][Cl] [cisplatin, reference compound]
partial response (PR) [1]: did not produce even a single partial response

N=c1[nH]c(N)nc2ncc(CNc3ccc(C(=O)N[C@@H](CCC(=O)NNC(=O)OCCSSC[C@@H](NC(=O)[C@H](CCC(=O)NC[C@H](O)[C@@H](O)[C@H](O)[C@H](O)CO)NC(=O)[C@@H](CCC(=O)O)NC(=O)[C@H](CCC(=O)NC[C@H](O)[C@@H](O)[C@H](O)[C@H](O)CO)NC(=O)[C@@H](CCC(=O)O)NC(=O)[C@H](CCC(=O)NC[C@H](O)[C@@H](O)[C@H](O)[C@H](O)CO)NC(=O)CC[C@H](NC(=O)c4ccc(NCc5cnc6nc(N)[nH]c(=O)c6n5)cc4)C(=O)O)C(=O)O)C(=O)O)cc3)nc12 [^3H-EC1669]
tissue uptake at 10 min ([2]; female, Balb/c, mouse, plasma, sc, total radioactivity, 10 min post-dose, 500 nmol/kg s.c., read-out: found in the plasma): 12 %ID/g | more radioactivity in pooled urine than in 3H-MTX dosed animals [3]: ~14%

N=c1[nH]c(N)nc2ncc(CNc3ccc(C(=O)N[C@@H](CCC(=O)NNC(=O)OCCSSC[C@@H](NC(=O)[C@H](CCC(=O)NC[C@H](O)[C@@H](O)[C@H](O)[C@H](O)CO)NC(=O)[C@@H](CCC(=O)O)NC(=O)[C@H](CCC(=O)NC[C@H](O)[C@@H](O)[C@H](O)[C@H](O)CO)NC(=O)[C@@H](CCC(=O)O)NC(=O)[C@H](CCC(=O)NC[C@H](O)[C@@H](O)[C@H](O)[C@H](O)CO)NC(=O)CC[C@@H](NC(=O)c4ccc(NCc5cnc6nc(N)[nH]c(=O)c6n5)cc4)C(=O)O)C(=O)O)C(=O)O)cc3)nc12 [EC1496]
treatment-related weight loss [4]: not observed | Cmax of conjugate, comparison [5]: higher Cmax than EC0746 | half-life, comparison with EC0746 [5]: shorter half-life | Free drug released (%): AMT ([5]; plasma): 5.13% | Free drug released (%): AMT-hydrazide (EC0470) ([5]; plasma): 3.15% | Free drug released (%): Total ([5]; plasma): 8.28% | toxicity relative to comparative example EC0746 [6]: less toxic

CN(Cc1cnc2nc(N)nc(N)c2n1)c1ccc(C(=O)N[C@@H](CCC(=O)O)C(=O)O)cc1 [^3H-MTX, ^3H-methotrexate]
captured by the liver [2, 8]: 31 % ID/g | found in the plasma [2, 8]: 5.2 % ID/g | retention in RBCs, spleen, liver, intestine, and feces ([2]; entire sampling period): consistently higher than that of ^3H-EC1669 | radioactivity in pooled feces vs EC1669 dosed animals [3]: twice as much

CCCC(=O)OCN(C(=O)[C@@H](NC(=O)[C@H]1CCCCN1C)C(C)CC)[C@H](C[C@@H](OC(C)=O)c1nc(C(=O)N[C@@H](Cc2ccc(O)cc2)C[C@H](C)C(=O)NN)cs1)C(C)C (some centres unmarked) [TubB-H, reference compound]
IC50 [7]: ~1 nM | CR (KB tumors): 0% | Cures (KB tumors): 0% | PR (KB tumors): 0% | Toxicity: Avg. Weight Loss (KB tumors): >15% | Toxicity: Deaths (KB tumors): 20%
